How the values were obtained:
primary human T cells [1] = experiment: CD5-HA knock-in with short ssDNA HDRT, knock-in efficiency by flow cytometry; type: cell-based; settings: short ssDNA CD5-HA knock-in construct, optimal concentrations, inhibitors for 24 hours after electroporation
Source text: (a) Evaluation of relative increase in % knock-in using an ssDNA CD5-HA knock-in construct over varied concentrations of 5 different small molecule inhibitors assessed by flow cytometry. […] (b) Comparison of relative % knock-in (top) and live cell counts (bottom) with small molecule inhibitor combinations. […] Panel a, b, and d were each performed with T cells from 2 independent healthy human blood donors. […] Error bars indicate standard deviation. CTS=Cas9 Target Site, HDRT=homology-directed-repair template, dsCTS=dsDNA+CTS HDRT, ssCTS=ssDNA+CTS HDRT, TSA=Trichostatin A, HDR Enhancer=IDT Alt-R HDR Enhancer, MT=M3814+TSA, MTX=M3814+TSA+XL413.
(§2) Trichostatin A (TSA) (Cayman Chemical), Nedisertib (M3814) (MedKoo Biosciences), XL413 hydrochloride (XL413) (Fisher Scientific), NU7441 (Fisher Scientific), and Alt-R HDR enhancer (IDT) were prepared and stored as aliquots per manufacturer guidelines. For experiments using small molecule inhibitors, cells were incubated with the indicated concentrations upon addition of fresh growth media following the 15 minute rescue step, and removed by media exchange after 24 hours.

CD5 target locus = experiment: Amplicon sequencing of the CD5 target locus, repair outcomes; type: cell-based, human; settings: small CD5-HA templates
Source text: We further examined repair outcomes at the genetic level by amplicon sequencing of the CD5 target locus with different versions of the small CD5-HA templates and inhibitor cocktails. […] The ratio of perfect:imperfect HDR events was also similar across the different types of templates. Intriguingly, […] […] Inclusion of HDR templates was associated with preferential reduction in the larger deletions characteristic of MMEJ (while smaller indels characteristic of NHEJ were more refractory in the absence of DNA-PK inhibition), in agreement with recent reports.

primary human T cells [2] = experiment: Live cell counts after electroporation with small molecule inhibitors; type: cell-based
Procedure: (d) Evaluation of live cell counts with MT and MTX inhibitor combinations using 44 different knock-in constructs targeting a tNGFR marker across 22 different target loci with 2 gRNA per gene (g1 and g2). Panel a, b, and d were each performed with T cells from 2 independent healthy human blood donors. Panel c was performed with T cells from 4-6 independent healthy human blood donors. Error bars indicate standard deviation. CTS=Cas9 Target Site, HDRT=homology-directed-repair template, dsCTS=dsDNA+CTS HDRT, ssCTS=ssDNA+CTS HDRT, TSA=Trichostatin A, HDR Enhancer=IDT Alt-R HDR Enhancer, MT=M3814+TSA, MTX=M3814+TSA+XL413.
as §2

primary human T cells [3] = type: cell-based; settings: ssCTS tNGFR template +/- MT and MTX
Source text: (a) Knock-in efficiencies for constructs targeting a tNGFR marker to 22 different target genome loci. (b-d) Comparison of large ssDNA and dsDNA HDRTs with CTS sites for knock-in of a pooled library of 2.6-3.6 kb polycistronic constructs targeted to the TRAC locus. Shown for each HDRT variation is (b) relative % knock-in in comparison to maximum for dsDNA+CTS templates, (c) relative knock-in cell count yields in comparison to maximum for dsDNA+CTS templates, and (d) representation of each library member in knock-in cells post-electroporation in comparison to construct representation the input plasmid pool. (e-g) Comparison of knock-in cell yields using ssDNA (red) and dsDNA HDRTs (blue) with CTS sites across a variety of primary human hematopoietic cell types. Note, different cell type comparisons are performed with different blood donors. All comparisons were performed using a knock-in construct generating an CLTA-mCherry fusion at the CLTA locus. Shown for each cell type using HDRT concentrations from 5-160 nM are (e) knock-in cell count yields, (f) maximum fold-change in knock-in count yields (relative to dsCTS templates), and (g) maximum % knock-in. […]
(a) Evaluation of relative increase in % knock-in using an ssDNA CD5-HA knock-in construct over varied concentrations of 5 different small molecule inhibitors assessed by flow cytometry. […]

IL2RA = experiment: TIDE indel analysis, RNPs targeting exon 1 of IL2RA +/- M3814 and TSA; type: cell-based, human; settings: with addition of M3814 and TSA
Procedure: Media was refreshed after 24 hours in all samples, and cells were resuspended in growth media and IL-2. Six days after electroporations, genomic DNA was isolated from samples and amplicons were generated using PCR. Amplicons were sequenced and analyzed using TIDE (Tracking of Indels by Decomposition) to determine distinct changes in indel spectrums.

CTLA4 protein = experiment: CTLA4 gRNA screen: protein disruption by CTLA4 flow cytometric analysis; type: cell-based, human; settings: activated CD4+ T cells, flow cytometry
Procedure: Flow Cytometry. All flow cytometry was performed on an Attune NxT flow cytometer with a 96-well autosampler (Thermo Fisher Scientific). Unless otherwise indicated, cells were collected 3-5 days post-electroporation, resuspended in FACS buffer (1%-2% BSA in PBS) and stained with Ghost Dye red 780 (Tonbo) and the indicated cell-surface and intracellular markers (see Table 2 for antibodies). For intracellular staining, cells were stained for surface markers and then prepared for intracellular staining using True-Nuclear Transcription Factor staining kits (Biolegend). […] Analysis was done using FlowJo v10 software. All gating strategies included exclusion of subcellular debris, singlet gating, and live:dead stain. Final graphs were produced with Prism (GraphPad), and figures were compiled with Illustrator (Adobe).
(§1) As a further example, we examined an ORF insertion within the CTLA4 gene (FIG. 8E). CTLA4 deficiency is caused most frequently by a haploinsufficiency with a disease-causing mutation on only 1 of 2 alleles. Exon-targeting strategies generate indels which could disrupt the normal allele and worsen disease. To avoid this possibility, we screened a panel of gRNA in intron 1, set forth in Table 3, to identify targets which cut efficiently without disrupting protein expression (FIG. 7B).

CTLA4 gene = experiment: CTLA4 gRNA screen: cutting efficiency by TIDE indel analysis; type: cell-based, human; settings: TIDE indel analysis at target locus
Source text: as §1

| Molecule | %CTLA4 protein loss above background (CTLA4 protein) [%] | %indel (CTLA4 gene) [%] | also measured |
| --- | --- | --- | --- |
| COc1ccc([C@@H](O)c2cc(-c3ncnc4cc(N5CCOCC5)ccc34)c(F)cc2Cl)nn1 [M3814, (S)-(2-chloro-4-fluoro-5-(7-morpholinoquinazolin-4-yl)phenyl)(6-methoxypyridazin-3-yl)methanol] |  |  | increase in knock-in efficiency (primary human T cells [1]): ~49%; repair outcomes: frequency of indels (CD5 target locus): decreased frequency of indels |
| O=c1cc(N2CCOCC2)oc2c(-c3cccc4c3sc3ccccc34)cccc12 [NU7441, 8-(dibenzo[b,d]thiophen-4-yl)-2-morpholino-4H-chromen-4-one] |  |  | increase in knock-in efficiency (primary human T cells [1]): ~43% |
| CC(/C=C/C(=O)NO)=C\[C@@H](C)C(=O)c1ccc(N(C)C)cc1 [TSA, [R-(E,E)]-7-[4-(dimethylamino)phenyl]-N-hydroxy-4,6-dimethyl-7-oxo-2,4-heptadienamide] |  |  | increase in knock-in efficiency (primary human T cells [1]): ~16% |
| Cl.O=c1[nH]c([C@@H]2CCCN2)nc2c1oc1ccc(Cl)cc12 [XL413, (S)-8-chloro-2-(pyrrolidin-2-yl)benzofuro[3,2-d]pyrimidin-4(3H)-one hydrochloride] |  |  | increase in knock-in efficiency (primary human T cells [1]): ~46%; reduction in cell counts (primary human T cells [2]; Day 11): ~20%; reduction in cell counts (primary human T cells [2]; day 4 post-electroporation): ~50% |
| CD7 g1: gRNA targeting CD7, TCAGCTGCACTCGCCCGGCT (SEQ ID NO: 17), with corresponding tNGFR ssCTS template (listed as DNA, chemistry not given here) |  |  | effect size of inhibitors: increase in knock-in efficiency (primary human T cells [3]): relatively little increase |
| G377: crRNA/gRNA targeting IL2RA, TGAGCAGTCCCCACATCAGC (SEQ ID NO: 13) (listed as DNA, chemistry not given here) |  |  | cutting efficiency (IL2RA): not impacted |
| G509: gRNA, CTLA4 exon 1, target sequence CCTTGTGCCGCTGAAATCCA (SEQ ID NO: 63) (listed as DNA, chemistry not given here) | 39.2 | 78.2 |  |
| G510: gRNA, CTLA4 exon 1, target sequence CCTTGGATTTCAGCGGCACA (SEQ ID NO: 64) (listed as DNA, chemistry not given here) | 16.65 | 47.7 |  |
| G511: gRNA, CTLA4 exon 1, target sequence GCACAAGGCTCAGCTGAACC (SEQ ID NO: 65) (listed as DNA, chemistry not given here) | 32.4 | 71.85 |  |
| G512: gRNA, CTLA4 exon 1, target sequence CTCAGCTGAACCTGGCTACC (SEQ ID NO: 66) (listed as DNA, chemistry not given here) | 1.3 | 12.15 |  |
| G513: gRNA, CTLA4 exon 1, target sequence TGAACCTGGCTACCAGGACC (SEQ ID NO: 67) (listed as DNA, chemistry not given here) | 10.2 | 23.7 |  |
| G514: gRNA, CTLA4 exon 1, target sequence AGAAAAAACAGGAGAGTGCA (SEQ ID NO: 68) (listed as DNA, chemistry not given here) | 47.45 | 94.35 |  |
| G515: gRNA, CTLA4 intron 1, target sequence TTGTATGCCAAACAGACTGG (SEQ ID NO: 69) (listed as DNA, chemistry not given here) | 0 | 79.25 |  |
| G516: gRNA, CTLA4 intron 1, target sequence TGCATCTGAAACCCACACGT (SEQ ID NO: 70) (listed as DNA, chemistry not given here) | 0 | 61.95 |  |
| G517: gRNA, CTLA4 intron 1, target sequence CTCTGAAGAGCTGAAAACTG (SEQ ID NO: 71) (listed as DNA, chemistry not given here) | 0 | 80.35 |  |
| G519: gRNA, CTLA4 intron 1, target sequence ACATATTTCATGGTAGAGCC (SEQ ID NO: 73) (listed as DNA, chemistry not given here) | 0 | 89.65 |  |
| G520: gRNA, CTLA4 intron 1, target sequence GATATGACAAACAGAAGACC (SEQ ID NO: 4) (listed as DNA, chemistry not given here) | 0 | 72.5 |  |
| PI3KCD g2: gRNA targeting PI3KCD, TAACAACGCAGGATGCCCCC (SEQ ID NO: 38), with corresponding tNGFR ssCTS template (listed as DNA, chemistry not given here) |  |  | effect size of inhibitors: increase in knock-in efficiency (primary human T cells [3]): up to 7 fold |

From patent US20250290099A1, “MATERIALS AND METHODS FOR TARGETED GENETIC MANIPULATIONS IN CELLS” (The Regents of the University of California, priority 2021, published 2025)
